In US7772383B2, “Chemical PCR: Compositions for enhancing polynucleotide amplification reactions” (The Trustees of Princeton University, priority 2002, dated 2010):

Tests used:
[1] = tested on: bovine brain glycolipid transfer protein (GTP) cDNA (660 bp); assay: PCR amplification of GTP with lower denaturation/extension temperatures; format: biochemical; conditions: for Potency: annealing 55° C., normalized: 1,5-pentanediol (95/72° C.) = 1; for Effective: concentration interval over which target band minus control is at least 50% of maximum volume
Description: (§1) Amplification reactions were carried out under the following general conditions. Those skilled in the art will appreciate, however, that to the extent that the conditions (set forth in this application) required for specific experiments described in this example were inconsistent with the following general conditions, limited exceptions to the following general conditions were made The general conditions were as follows: 10 Mm Tris-HCl (Ph 8.8), 50 Mm KCl, 1.5 Mm MgCl2, 0.01% (w/v) gelatin, 0.2 Um primers, 0.06 ng/ul template, 0.2 Mm each Dntp, 0.04 U/ul Taq polymerase. The templates used were bovine brain N-WASP cDNA (1518 bp), a 996 by segment of human myeloid leukocyte c-jun cDNA, a 511 by segment of human prostate-specific membrane antigen (PSM) cDNA, and bovine brain glycolipid transfer protein (GTP) cDNA (660 bp). cDNA synthesis was carried out using the FIRST-STRAND® RT-PCR kit from Stratagene on the respective mRNAs purchased from Clontech. All amplification reactions for gene were carried out using a single master batch of cDNA. Taq polymerase and dNTPs were obtained from Stratagene. Primers were obtained from Genosys. Primer melting temperatures (Tms) were calculated using the Genosys oligo calculator program. The sequences of the primers were as follows.
(§2) Polymerase chain reactions for the N-WASP gene were conducted on a ROBOCYCLER® Gradient 40 thermal cycler from Stratagene using 100 ul solutions in 600 ul thin-walled tubes. For expediency, amplification of c-jun, PSM and GTP was carried out in a ROBOCYCLER® Gradient 96 thermal cycler from Stratagene using 50 ul solutions in 200 ul thin-walled tubes. Prior to Taq polymerase addition, a hotstart protocol was carried out that consisted of an initial cycle of 95° C. for 5 minutes (11) to ensure complete first-strand separation, followed by a cycle of 54° C. for 5 minutes. Amplifications were run for 30 cycles. Denaturation was done for 1 minute at the minimum temperatures that yielded discernable amplification: 92° C. for N-WASP and 95° C. for c-jun, PSM and GTP. Extension was done at 72° C. for periods depending on target length: 2 minutes for N-WASP, 1.5 minutes for c-jun and GTP, and 1 minute for PSM. Annealings were carried out either at fixed concentrations of additives using temperature gradients of 38-56° C. for N-WASP and 44-58° C. for the other targets, or at varying concentrations of additives using fixed temperatures of 41° C. for N-WASP, 50° C. for c-jun and PSM, and 54° C. for GTP.
Amplification products were analyzed by agarose gel electrophoresis on 0.8% agarose gels in which 20 ul reaction products were loaded with 4 ul loading buffer. Gels were stained with ethidium bromide, visualized on a UV transilluminator (Fisher), and documented by photography. Densitometric quantitation of amplification products was carried out using IMAGE SCANNER® and IMAGE MASTER® software from Amersham Pharmacia. Background correction was done using the software's rolling disc method.
Two phases of investigations were carried out into the use of 62° C. extension temperature in PCR reactions. The first involved concentration gradients with 1,2-butanediol and 1,5-pentanediol employing 62° C. extension and 95° C. denaturation. The first template used was GTP. A larger range of concentrations was employed than usual in the experiments due to the anticipated increase in effective range. These concentrations were: 0.1, 0.31, 0.5, 0.6, 0.8, 0.9 and 1.1M for 1,2-butanediol and 0.01, 0.2, 0.3, 0.4, 0.5, 0.7 and 1.0M for 1,5-pentanediol. The second phase of investigation involved experiments in which the denaturation temperature was lowered to 92° C. The following concentrations were tested: 1,2-butanediol—0.1, 0.3, 0.5, 0.6, 0.7, 0.9, 1.1, 1.3, and 1.4M; 1,5-pentanediol: 0.1, 0.2, 0.3, 0.4, 0.5, 0.7, 1.0, and 1.4M. 1,2-butanediol was also tested with the more GC-rich template c-jun. The following concentrations were tested: 0.1, 0.3, 0.5, 0.7, 0.9, 1.1, 1.4M.

[2] = tested on: bovine brain glycolipid transfer protein (GTP) cDNA (660 bp); assay: Pilot low temperature PCR of GTP with 1,5-pentanediol; format: biochemical; conditions: normalized: 1,5-pentanediol (95/72° C.) = 1
Description: as §1, §2
Amplification products were analyzed by agarose gel electrophoresis on 0.8% agarose gels in which 20 ul reaction products were loaded with 4 ul loading buffer. Gels were stained with ethidium bromide, visualized on a UV transilluminator (Fisher), and documented by photography. Densitometric quantitation of amplification products was carried out using IMAGE SCANNER® and IMAGE MASTER® software from Amersham Pharmacia. Background correction was done using the software's rolling disc method. […] GTP was used as the target because it has the lowest GC content of the three templates used. PCR reactions were carried out in the presence of 1.0 and 1.5M 1,5-pentanediol under the conditions of 85° C. denaturing and 53° C. extension, using a 50° C. annealing temperature. In addition, 1.5M and 2.0M 1,5-pentandediol were tested using an 80° C. denaturing temperature, with identical annealing and extension temperature. Finally, 2.0, 2.5, and 3.0M 1,5-pentanediol were tested in GTP amplification employing a 75° C. denaturation temperature.

[3] = 92/62° C. denaturation/extension
[4] = 95/62° C. denaturation/extension

Structure (SMILES)	Potency [1, 3]	Effective ([1]; 92/62° C.)	cutoff concentration ([1]; 92° C. denaturation, 62° C. extension) [M]	Potency [1, 4]	Effective ([1]; 95/62° C.)	GTP Potency ([2]; 75/50/53° C., 2.0 M 1,5-pentanediol)	GTP Potency ([2]; 75/50/53° C., 2.0 M 1,5-pentanediol, listed as 1,5-pentanediol)	GTP Potency ([2]; 75/50/53° C., 2.5 M 1,5-pentanediol)	GTP Potency ([2]; 75/50/53° C., 2.5 M 1,5-pentanediol, listed as 1,5-pentanediol)	GTP Potency ([2]; 75/50/53° C., 3.0 M 1,5-pentanediol)	GTP Potency ([2]; 75/50/53° C., 3.0 M 1,5-pentanediol, listed as 1,5-pentanediol)	GTP Potency ([2]; 80/50/53° C., 1.5 M 1,5-pentanediol)	GTP Potency ([2]; 80/50/53° C., 1.5 M 1,5-pentanediol, listed as 1,5-pentandediol)	GTP Potency ([2]; 80/50/53° C., 2.0 M 1,5-pentanediol)	GTP Potency ([2]; 80/50/53° C., 2.0 M 1,5-pentanediol, listed as 1,5-pentandediol)	GTP Potency ([2]; 85/50/53° C. denaturation/annealing/extension, 1.0 M 1,5-pentanediol)	GTP Potency ([2]; 85/50/53° C. denaturation/annealing/extension, 1.0 M 1,5-pentanediol, listed as 1,5-pentanediol)	GTP Potency ([2]; 85/50/53° C., 1.5 M 1,5-pentanediol)	GTP Potency ([2]; 85/50/53° C., 1.5 M 1,5-pentanediol, listed as 1,5-pentanediol)
OCCCCCO [1,5-Pentanediol]	1.97	0.29-0.90	1.0	1.49	0.15-0.63	0.00	unsuccessful	0.00	unsuccessful	0.53	succeeded in producing amplification	0.00	failed to produce any discernable amplification	2.69	high yield	2.78	strong amplification	2.64	strong amplification
CCC(O)CO (centres unmarked) [1,2-Butanediol]	1.50	0.50-1.27		0.88	0.10-0.82														
